Experimental data from the supplement of paper PMC10627819.
In brackets after ≈: the same amount, converted by molar mass.

Key:
S. pneumoniae D39V [1] = test system: S. pneumoniae D39V
B. subtilis 168 [2] = test system: B. subtilis 168
S. aureus DSM 20231 [3] = test system: S. aureus DSM 20231
S. aureus Newman [4] = test system: S. aureus Newman
S. pneumoniae D39V [5] = test: fitness (endpoint OD595 vs no drug) (fraction); higher = more growth
How it was run: (§1)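 At 37 °C, bacteria in TSB, LB Lennox or CY were grown in 384-well plates from a starting OD595 of 0.01. OD595 was measured every 30 min for 14 h, with the first reading used as background. Fitness is the optical density at the switch to stationary phase as a fraction of the robust mean of no-drug control wells, capped at 1.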

B. subtilis 168 [6] = test: as above
How it was run: as §1

S. aureus DSM 20231 [7] = test: as above
How it was run: as §1

S. aureus Newman [8] = test: as above
How it was run: as §1

CO/N=C(\C(=O)N[C@@H]1C(=O)N2C(C(=O)[O-])=C(C[N+]3(C)CCCC3)CS[C@H]12)c1csc(N)n1 [Cefepime]
Settings | MIC [µg/mL]
B. subtilis 168 [2] | 0.25 (≈ 0.52 µM)
S. aureus DSM 20231 [3] | 0.556 (≈ 1.16 µM)
S. aureus Newman [4] | 0.556 (≈ 1.16 µM)
S. pneumoniae D39V [1] | 0.031 (≈ 0.0645 µM)

Settings | fitness
B. subtilis 168 [6], 0.0625 µg/mL | 0.872
B. subtilis 168 [6], 0.125 µg/mL | 0.729
B. subtilis 168 [6], 0.25 µg/mL | 0.432
S. aureus DSM 20231 [7], 0.125 µg/mL | ≥ 1
S. aureus DSM 20231 [7], 0.25 µg/mL | 0.996
S. aureus DSM 20231 [7], 0.5 µg/mL | 0.935
S. aureus Newman [8], 0.125 µg/mL | 0.924
S. aureus Newman [8], 0.25 µg/mL | 0.872
S. aureus Newman [8], 0.5 µg/mL | 0.784
S. pneumoniae D39V [5], 0.0078 µg/mL | ≥ 1
S. pneumoniae D39V [5], 0.0155 µg/mL | 0.993
S. pneumoniae D39V [5], 0.031 µg/mL | 0.696

CN(C)C(=O)C(CCN1CCC(O)(c2ccc(Cl)cc2)CC1)(c1ccccc1)c1ccccc1 [Loperamide]
Settings | MIC [µg/mL]
B. subtilis 168 [2] | 100 (≈ 210 µM)
S. aureus DSM 20231 [3] | 120 (≈ 252 µM)
S. aureus Newman [4] | 120 (≈ 252 µM)
S. pneumoniae D39V [1] | 200 (≈ 419 µM)

fitness
Settings | 20 µg/mL | 25 µg/mL | 40 µg/mL | 50 µg/mL | 80 µg/mL | 100 µg/mL
B. subtilis 168 [6] | – | 0.651 | – | 0.254 | – | 0.03
S. aureus DSM 20231 [7] | – | ≥ 1 | – | 0.925 | – | 0.0918
S. pneumoniae D39V [5] | ≥ 1 | – | ≥ 1 | – | 0.869 | –

CCN(CC)CCOC(=O)c1ccc(N)cc1 [Procaine]
Settings | MIC [µg/mL]
B. subtilis 168 [2] | > 342
S. aureus DSM 20231 [3] | > 342
S. aureus Newman [4] | > 342
S. pneumoniae D39V [1] | > 342

fitness
Settings | B. subtilis 168 [6] | S. aureus DSM 20231 [7] | S. aureus Newman [8] | S. pneumoniae D39V [5]
85.5 µg/mL | 0.922 | 0.999 | 0.982 | 0.995
171 µg/mL | 0.918 | 0.998 | 0.972 | ≥ 1
342 µg/mL | 0.91 | 0.999 | 0.95 | 0.977

C[C@H]1COc2c(N3CCN(C)CC3)c(F)cc3c(=O)c(C(=O)O)cn1c23 [Levofloxacin]
Settings | MIC [µg/mL]
S. aureus DSM 20231 [3] | 0.15 (≈ 0.415 µM)
S. pneumoniae D39V [1] | 2 (≈ 5.53 µM)

fitness
Settings | 0.002 µg/mL | 0.0039 µg/mL | 0.0078 µg/mL | 0.0312 µg/mL | 0.0625 µg/mL | 0.125 µg/mL | 0.2 µg/mL | 0.4 µg/mL | 0.8 µg/mL
B. subtilis 168 [6] | 0.932 | 0.928 | 0.916 | 0.0401 | 0.0424 | 0.0419 | – | – | –
S. pneumoniae D39V [5] | – | – | – | – | – | – | 0.931 | 0.789 | 0.468

Cn1nnc(-c2ccc(-c3ccc(N4C[C@H](CO)OC4=O)cc3F)cn2)n1 [Tedizolid]
Settings | MIC [µg/mL]
B. subtilis 168 [2] | 0.5 (≈ 1.35 µM)
S. aureus DSM 20231 [3] | 0.3 (≈ 0.81 µM)
S. aureus Newman [4] | 0.3 (≈ 0.81 µM)
S. pneumoniae D39V [1] | 0.125 (≈ 0.338 µM)

fitness
Settings | 0.0312 µg/mL | 0.0625 µg/mL | 0.125 µg/mL | 0.25 µg/mL | 0.5 µg/mL
B. subtilis 168 [6] | 0.943 | 0.901 | 0.643 | – | –
S. aureus DSM 20231 [7] | – | 0.923 | 0.809 | 0.229 | –
S. aureus Newman [8] | – | 0.936 | 0.859 | 0.434 | –
S. pneumoniae D39V [5] | – | – | 0.719 | 0.416 | 0.168
